Test results reported in patent publication US5580982A, “Substituted 3-(aminoalkylamino)-1,2-benzisoxazoles and related compounds” (priority 1995, dated 1996).
pIC50: −log10 of the molar value.

Columns and labels:
[1] = target: T1, MAO-A (Rattus norvegicus, UniProt P21396); assay: Inhibition of Type A monoamine oxidase activity in rat brain synaptosomes; format: biochemical; settings: substrate [^3 H]-5HT 200 μM; read-out: Inhibitory Concentration - IC50 MAO-A
T1 construct: the whole brain without cerebellum was dissected rapidly and frozen on dry ice; from tissue; host or cells: whole brain without cerebellum of orally dosed male Wistar rats, homogenate
T1 sequence (P21396 1-526): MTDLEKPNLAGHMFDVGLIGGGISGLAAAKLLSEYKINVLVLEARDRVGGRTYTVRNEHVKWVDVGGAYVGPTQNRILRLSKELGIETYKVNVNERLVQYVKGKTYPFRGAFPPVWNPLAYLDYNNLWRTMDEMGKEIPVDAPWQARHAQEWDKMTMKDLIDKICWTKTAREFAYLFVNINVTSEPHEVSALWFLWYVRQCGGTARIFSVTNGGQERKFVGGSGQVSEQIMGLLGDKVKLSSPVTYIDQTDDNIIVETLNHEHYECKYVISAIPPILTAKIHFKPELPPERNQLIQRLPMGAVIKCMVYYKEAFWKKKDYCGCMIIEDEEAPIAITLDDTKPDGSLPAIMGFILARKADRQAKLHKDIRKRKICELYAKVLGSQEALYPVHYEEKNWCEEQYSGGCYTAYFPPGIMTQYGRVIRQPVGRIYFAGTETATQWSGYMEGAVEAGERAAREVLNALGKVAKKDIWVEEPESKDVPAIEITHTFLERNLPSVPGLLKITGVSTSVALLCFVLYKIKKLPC
Experimental: Inhibition of Type A and Type B Monoamine Oxidase Activity in Rat Brain Synaptosomes
To determine the selective inhibition of the two forms of monoamine oxidase (MAO).
Although various methods for measuring MAO activity are available, the described method involves the extraction of the radiolabeled deaminated metabolites of [^3 H]-5HT or [^14 C]-β-phenethylamine. This procedure allows MAO-A and MAO-B activities to be measured either simultaneously or individually (3).
c. Add 12 μl of [^3 H]-5HT to 2 ml of the 5 mM 5HT solution. (Final amine concentration in the assay is 200 μM: see below.)
5. Equal amounts of MAO-A (5HT) and MAO-B (PEA) substrates are combined for simultaneously testing both MAO types, i.e. mixed stock solution of 2.5 mM 5HT and 2.5 mM PEA, 40 μl of this mixed solution gives a 200 μM final concentration of each amine in the assay. When testing only one MAO type, the individual 5 mM stock solutions must be diluted 1:1 with distilled water prior to adding 40 μl to the incubation mixture; i.e., same 200 μM final amine concentration.
Male Wistar rats weighing 150-250 grams were sacrificed and the brains rapidly removed. Whole brain minus cerebellum was homogenized in 30 volumes of ice-cold, phosphate-buffered 0.25M sucrose, using a Potter-Elvejhem homogenizer. The homogenate was centrifuged at 1000 g for 10 minutes and the supernatant (S1) decanted and recentrifuged at 18,000 g for 20 minutes. The resulting pellet (P2) was resuspended in fresh 0.25M sucrose and served as the tissue source for mitochondrial MAO.
Tubes are preincubated for 15 minutes at 37° C. and the assay is started by adding 40 μl of combined substrate ([^3 H]-5HT and [^14 C]-PEA) at 15 second intervals. The tubes are incubated for 30 minutes at 37° C. and the reaction stopped by the addition of 0.3 ml 2N HCl. Tissue blank values are determined by adding the acid before the radioactive substrate. The oxidative products of the reaction are extracted with ethyl acetate/toluene (1:1). 5 ml of this mixture is added to the tubes. The resultant mixture is vortexed for 15 seconds to extract the deaminated metabolites into the organic phase and the latter is allowed to separate from the aqueous phase. The tubes are placed in acetone/dry ice bath to freeze the aqueous layer. When this layer is frozen, the top organic layer is poured into a scintillation vial. 10 ml of Liquiscint is added and the samples are counted using window settings for ^14 C in one channel and ^3 H in the second channel. IC50 values are determined by log-probit analysis.

[2] = target: T2, MAO-B (Rattus norvegicus, UniProt P19643); assay: Inhibition of Type B monoamine oxidase activity in rat brain synaptosomes; format: biochemical; settings: substrate [^14 C]-PEA 200 μM; read-out: Inhibitory Concentration - IC50 MAO-B
T2 construct: the whole brain without cerebellum was dissected rapidly and frozen on dry ice; from tissue; host or cells: whole brain without cerebellum of orally dosed male Wistar rats, homogenate
T2 sequence (P19643 1-520): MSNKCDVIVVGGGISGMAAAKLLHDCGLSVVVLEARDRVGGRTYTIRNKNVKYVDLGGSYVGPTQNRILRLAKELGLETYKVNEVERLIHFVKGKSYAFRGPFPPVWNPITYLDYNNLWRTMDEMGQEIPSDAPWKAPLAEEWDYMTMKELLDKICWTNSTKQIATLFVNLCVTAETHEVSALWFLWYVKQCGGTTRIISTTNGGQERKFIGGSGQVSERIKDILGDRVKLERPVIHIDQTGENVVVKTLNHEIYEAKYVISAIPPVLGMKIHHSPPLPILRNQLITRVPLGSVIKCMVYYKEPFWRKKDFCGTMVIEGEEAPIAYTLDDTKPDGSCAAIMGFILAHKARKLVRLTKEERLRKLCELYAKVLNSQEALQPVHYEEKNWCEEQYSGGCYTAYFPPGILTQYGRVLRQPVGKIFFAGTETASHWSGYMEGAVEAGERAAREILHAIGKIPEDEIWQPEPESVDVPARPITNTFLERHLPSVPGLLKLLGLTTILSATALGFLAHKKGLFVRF
Source text: Male Wistar rats weighing 150-250 grams were sacrificed and the brains rapidly removed.

COc1ccc2c(N3CCN(c4ccncc4)CC3)noc2c1 [6-Methoxy-3-[1-(4-pyridyl)piperazinyl)]-1,2-benzisoxazole]
pIC50 [1]: 5.00
pIC50 [2]: 4.35

COc1ccc2c(N(C)CCN3CCOCC3)noc2c1 [6-Methoxy-N-methyl-N-[2-(4-morpholinyl)ethyl]-1,2-benzisoxazol-3-amine]
pIC50 [1]: 4.89
pIC50 [2]: < 3.00
